Calls of active or inactive are those of the source. The rule behind the calls is not given here.
Tests used:
[1] = Induction of osteoblastic differentiation in mouse ST2 cells assessed as increase in alkaline phosphatase activity after 4 days by lowry method; assay type: functional
in vitro = conditions: rat, liver microsomes
Rattus norvegicus [2] = test: Bone anabolic effect in ovariectomized F344 rat postmenopausal osteoporosis model assessed as increase in serum osteocalcin level at 10 to 30 mg/kg, po qd for 6 weeks by ELISA; assay type: functional, organism-based
Rattus norvegicus [3] = test: Bone anabolic effect in ovariectomized F344 rat postmenopausal osteoporosis model assessed as increase in areal bone mineral density of proximal tibiae at 10 to 30 mg/kg, po qd for 6 weeks by dual energy X-ray absorptiometry; assay type: functional, organism-based
Rattus norvegicus [4] = test: Bone anabolic effect in ovariectomized F344 rat postmenopausal osteoporosis model assessed as increase in areal bone mineral density of femoral diaphyses at 10 to 30 mg/kg, po qd for 6 weeks by dual energy X-ray absorptiometry; assay type: functional, organism-based
Rattus norvegicus [5] = test: Bone anabolic effect in ovariectomized F344 rat postmenopausal osteoporosis model assessed as increase in areal bone mineral density of distal femur at 10 to 30 mg/kg, po qd for 6 weeks by dual energy X-ray absorptiometry; assay type: functional, organism-based
[6] = Oral bioavailability in F344 rat at 25 mg/kg; assay type: ADME, organism-based; conditions: in vivo
[7] = AUC in F344 rat at 25 mg/kg, po; assay type: ADME, organism-based; set-up: dose 25 mg/kg, route oral; conditions: plasma
[8] = AUC in F344 rat at 2 mg/kg, iv; assay type: ADME, organism-based; set-up: dose 2 mg/kg, route intravenous; conditions: plasma
[9] = Half life in F344 rat at 25 mg/kg, po; conditions: in vivo
[10] = Cmax in F344 rat at 25 mg/kg, po; assay type: ADME, organism-based; set-up: dose 25 mg/kg, route oral; conditions: in vivo
[11] = Half life in F344 rat at 2 mg/kg, iv; conditions: in vivo
[12] = Volume of distribution in F344 rat at 2 mg/kg, iv; assay type: ADME, organism-based; set-up: dose 2 mg/kg, route intravenous; conditions: in vivo
Rattus norvegicus [13] = test: Volume of distribution in F344 rat at 25 mg/kg, po; assay type: ADME, organism-based; set-up: dose 25 mg/kg, route oral; conditions: in vivo
[14] = Clearance in F344 rat at 2 mg/kg, iv; conditions: in vivo
[15] = Clearance in F344 rat at 25 mg/kg, po; conditions: in vivo
Rattus norvegicus [16] = test: Bone anabolic effect in ovariectomized F344 rat postmenopausal osteoporosis model assessed as increase in serum osteocalcin level at 60 mg/kg, po bid for 6 weeks by ELISA; assay type: functional, organism-based; set-up: dose 60 mg/kg
Rattus norvegicus [17] = test: Bone anabolic effect in ovariectomized F344 rat postmenopausal osteoporosis model assessed as increase in areal bone mineral density of proximal tibiae at 60 mg/kg, po bid for 6 weeks by dual energy X-ray absorptiometry; assay type: functional, organism-based; set-up: dose 60 mg/kg
Rattus norvegicus [18] = test: Bone anabolic effect in ovariectomized F344 rat postmenopausal osteoporosis model assessed as increase in areal bone mineral density of femoral diaphyses at 60 mg/kg, po bid for 6 weeks by dual energy X-ray absorptiometry; assay type: functional, organism-based; set-up: dose 60 mg/kg
Rattus norvegicus [19] = test: Bone anabolic effect in ovariectomized F344 rat postmenopausal osteoporosis model assessed as increase in areal bone mineral density of distal femur at 60 mg/kg, po bid for 6 weeks by dual energy X-ray absorptiometry; assay type: functional, organism-based; set-up: dose 60 mg/kg
[20] = Induction of osteoblastic differentiation in mouse ST2 cells assessed as increase in alkaline phosphatase activity at 0.30 ug/ml after 4 days by lowry method; assay type: functional

With `NC(=O)c1sc2nccc(N3CCN(c4ccccc4)CC3)c2c1N` as the compound, how does the EC200 [1] read?
The EC200 was 0.1 µg/mL.

What about the remaining at 0.5 h (in vitro) of the same compound?
The remaining at 0.5 h was 91%.

What does the source list for `NC(=O)c1sc2nccc(N3CCCN(c4ccccc4)CC3)c2c1N`?
Activity (Rattus norvegicus [2]): Active; Activity (Rattus norvegicus [3]): Active; Activity (Rattus norvegicus [4]): Active; Activity (Rattus norvegicus [5]): Active; bioavailability [6]: 71%; AUC [7]: 9500 ng·h/mL; AUC [8]: 1100 ng·h/mL; half-life [9]: 3.22 h; Cmax [10]: 2540 ng/mL; half-life [11]: 2.77 h; Vd [12]: 4.2 L/kg; Vd (Rattus norvegicus [13]): 8.1 L/kg; clearance [14]: 29 mL/min/kg; CL/F [15]: 34 mL/min/kg; EC200 [1]: 0.051 µg/mL; remaining at 0.5 h (in vitro): 71%

With `NC(=O)c1sc2nccc(N3CCCN(c4ccccn4)CC3)c2c1N` as the compound, how does the EC200 [1] read?
Its EC200 is 0.059 µg/mL.

For `CCOC(=O)c1ccc(N2CCCN(c3ccnc4sc(C(N)=O)c(N)c34)CC2)cc1`, which EC200 [1] is on record?
Its EC200 is 0.193 µg/mL.

For `N#Cc1ccc(N2CCCN(c3ccnc4sc(C(N)=O)c(N)c34)CC2)cc1`, which EC200 [1] is on record?
The EC200 was 0.099 µg/mL.

Which results are given for `NC(=O)c1sc2nccc(N3CCOCC3)c2c1N`?
EC200 [1]: 0.44 µg/mL; remaining at 0.5 h (in vitro): 82%

For `CN(C)c1ccnc2sc(C(N)=O)c(N)c12`, which Activity (Rattus norvegicus [16]) is on record?
The Activity was “Active”.

And the Activity (Rattus norvegicus [17])?
The Activity was “Active”.

And the Activity (Rattus norvegicus [18])?
Its Activity is “Active”.

And the bioavailability [6]?
The bioavailability was 87%.

What about the Activity (Rattus norvegicus [19]) of the same compound?
The Activity was “Active”.

What about the AUC [7] of the same compound?
The AUC was 9400 ng·h/mL.

What about the AUC [8] of the same compound?
Its AUC is 870 ng·h/mL.

What about the Cmax [10] of the same compound?
The Cmax was 5590 ng/mL.

And the Vd [12]?
Its Vd is 1.1 L/kg.

What about the Vd (Rattus norvegicus [13]) of the same compound?
The Vd was 3.1 L/kg.

And the EC200 [1]?
Its EC200 is 0.17 µg/mL.

For `NC(=O)c1ccc(N2CCCN(c3ccnc4sc(C(N)=O)c(N)c34)CC2)cc1`, which EC200 [1] is on record?
Its EC200 is 0.079 µg/mL.

With `COc1ccc(N2CCCN(c3ccnc4sc(C(N)=O)c(N)c34)CC2)cc1` as the compound, how does the EC200 [1] read?
The EC200 was 0.035 µg/mL.

With `CNC(=O)c1ccc(N2CCCN(c3ccnc4sc(C(N)=O)c(N)c34)CC2)cc1` as the compound, how does the EC200 [1] read?
Its EC200 is 0.023 µg/mL.

With `CC(C)(C)c1ccc(N2CCCN(c3ccnc4sc(C(N)=O)c(N)c34)CC2)cc1` as the compound, how does the EC200 [1] read?
The EC200 was 0.27 µg/mL.

For `NC(=O)c1sc2nccc(N3CCCN(c4ccc(C(=O)O)cc4)CC3)c2c1N`, which EC200 [1] is on record?
The EC200 was greater than 1 µg/mL.

Which Activity [20] does the source give for `CCCN(CCC)c1ccnc2sc(C(N)=O)c(N)c12` here?
The Activity was 110%.

Which EC200 [1] does the source give for `Cc1ccccc1N1CCCN(c2ccnc3sc(C(N)=O)c(N)c23)CC1` here?
The EC200 was greater than 1 µg/mL.

With `NC(=O)c1sc2nccc(N3CCCCC3)c2c1N` as the compound, how does the EC200 [1] read?
Its EC200 is 0.067 µg/mL.

What about the remaining at 0.5 h (in vitro) of the same compound?
Its remaining at 0.5 h is 2%.

Which EC200 [1] does the source give for `Cc1ccc(N2CCCN(c3ccnc4sc(C(N)=O)c(N)c34)CC2)cc1` here?
Its EC200 is 0.044 µg/mL.

Which EC200 [1] does the source give for `NC(=O)c1sc2nccc(N3CCCC3)c2c1N` here?
Its EC200 is 0.29 µg/mL.

Which EC200 [1] does the source give for `CN(C)C(=O)Cc1ccc(N2CCCN(c3ccnc4sc(C(N)=O)c(N)c34)CC2)cc1` here?
Its EC200 is 0.003 µg/mL.

Which Activity [20] does the source give for `CCCNc1ccnc2sc(C(N)=O)c(N)c12` here?
Its Activity is 134%.

For `CN(C)C(=O)c1ccc(N2CCCN(c3ccnc4sc(C(N)=O)c(N)c34)CC2)cc1`, which EC200 [1] is on record?
Its EC200 is 0.014 µg/mL.

For `CC(C)Oc1ccc(N2CCCN(c3ccnc4sc(C(N)=O)c(N)c34)CC2)cc1`, which EC200 [1] is on record?
Its EC200 is greater than 1 µg/mL.

For `NC(=O)c1sc2nccc(N3CCCN(c4ccncc4)CC3)c2c1N`, which EC200 [1] is on record?
The EC200 was 0.091 µg/mL.

Which EC200 [1] does the source give for `Cc1cccc(N2CCCN(c3ccnc4sc(C(N)=O)c(N)c34)CC2)c1` here?
The EC200 was 0.074 µg/mL.

With `NC(=O)c1sc2nccc(N3CCNCC3)c2c1N` as the compound, how does the Activity [20] read?
The Activity was 105%.

For `NC(=O)c1sc2nccc(N3CCCN(c4nccs4)CC3)c2c1N`, which EC200 [1] is on record?
The EC200 was 0.036 µg/mL.

With `NC(=O)c1sc2nccc(NC3CCCCC3)c2c1N` as the compound, how does the EC200 [1] read?
The EC200 was 0.24 µg/mL.

Which EC200 [1] does the source give for `NC(=O)c1sc2nccc(N3CCCN(c4ccc(F)cc4)CC3)c2c1N` here?
The EC200 was 0.082 µg/mL.

With `CN1CCN(c2ccnc3sc(C(N)=O)c(N)c23)CC1` as the compound, how does the Activity [20] read?
Its Activity is 117%.

— ChEMBL document CHEMBL2346568, “Discovery and structure-activity relationship of thienopyridine derivatives as bone anabolic agents” (Bioorg Med Chem, 2013)
